Reference: ChEMBL document CHEMBL5154783, “Design, synthesis, and evaluation of novel 3-thiophene derivatives as potent fungistatic and fungicidal reagents based on a conformational restriction strategy” (Eur J Med Chem, 2022)
In brackets after ≈: the same amount, converted by molar mass. Activity calls are given as the source filed them. The calls are words filed in the database; no cut-off is given here.

Assays:
Candida albicans [1] = test: Fungicidal activity against Candida albicans CPCC400616 measured after 48 hrs; type: functional
Cell membrane [2] = test: Disruption of membrane integrity in Candida albicans ATCC SC5314 assessed as cell membrane damage at 16 ug/ml incubated for 48 hrs by transmission electron microscopy; type: subcellular; settings: dose 16.0 µg/ml
[3] = target: T1, Lanosterol 14-alpha demethylase (Candida albicans (strain SC5314 / ATCC MYA-2876) (Yeast), UniProt P10613); test: Inhibition of CYP51 in Candida albicans ATCC SC5314 assessed as unknown sterol level at 0.25 ug/ml measured after 18 hrs by GC-MS analysis (reference value: 3.07 %); design: scale not given: the % may be the effect or the level left; settings: at 0.25 µg/mL
Candida albicans [4] = test: Antifungal activity against FLC-resistant Candida albicans CaR assessed as fungal growth inhibition by CLSI based serial microbroth dilution method; type: functional
Candida albicans [5] = test: Antifungal activity against FLC-resistant Candida albicans 103 assessed as fungal growth inhibition by CLSI based serial microbroth dilution method; type: functional
MCF7 = test: Cytotoxicity against human MCF7 cells assessed as reduction in cell viability incubated for 96 hrs by MTT assay; type: functional, cell-based; settings: MCF7, 96 h
Candida albicans [6] = test: Antifungal activity against FLC and ITC-resistant Candida albicans 17 assessed as fungal growth inhibition by CLSI based serial microbroth dilution method; type: functional
[7] = target: T1, Lanosterol 14-alpha demethylase; test: Inhibition of CYP51 in Candida albicans ATCC SC5314 assessed as ergosterol level at 0.25 ug/ml measured after 18 hrs by GC-MS analysis (reference value: 96.93 %); design: scale not given: the % may be the effect or the level left; settings: at 0.25 µg/mL
Cryptococcus neoformans = test: Antifungal activity against Cryptococcus neoformans CGMCC 2.3161 assessed as fungal growth inhibition by CLSI based serial microbroth dilution method; type: functional
Cell membrane [8] = test: Disruption of membrane integrity in Candida albicans ATCC SC5314 assessed as cell wall damage at 16 ug/ml incubated for 48 hrs by transmission electron microscopy; type: subcellular; settings: dose 16.0 µg/ml
Pichia kudriavzevii = test: Antifungal activity against Candida krusei GIM 2.1 assessed as fungal growth inhibition by CLSI based serial microbroth dilution method; type: functional
Candida albicans [9] = test: Antibiofilm activity against Candida albicans […] assessed as inhibition of […] metabolism within the biofilm measured after 3 hrs by XTT reduction assay; type: functional
[10] = target: T1, Lanosterol 14-alpha demethylase; test: Inhibition of CYP51 in Candida albicans ATCC SC5314 assessed as lanosterol level at 0.25 ug/ml measured after 18 hrs by GC-MS analysis relative to control; design: scale not given: the % may be the effect or the level left; settings: at 0.25 µg/mL
Cell membrane [11] = test: Disruption of membrane integrity in Candida albicans ATCC SC5314 assessed as endogenous substances leakage at 16 ug/ml incubated for 48 hrs by transmission electron microscopy; type: subcellular; settings: dose 16.0 µg/ml
Candida albicans [12] = test: Antifungal activity against Candida albicans ATCC SC5314 assessed as fungal growth inhibition by CLSI based serial microbroth dilution method; type: functional
[13] = Cytotoxicity against human THLE-2 cells assessed as reduction in cell viability incubated for 96 hrs by MTT assay; type: toxicity, cell-based
Candida albicans [14] = test: Antifungal activity against FLC-resistant Candida albicans 904 assessed as fungal growth inhibition by CLSI based serial microbroth dilution method; type: functional
Candida albicans [15] = test: Antifungal activity against Candida albicans CPCC400616 assessed as fungal growth inhibition by CLSI based serial microbroth dilution method; type: functional
Candida tropicalis = test: Antifungal activity against Candida tropicalis CGMCC 2.3739 assessed as fungal growth inhibition by CLSI based serial microbroth dilution method; type: functional
RAW264.7 = test: Cytotoxicity against mouse RAW264.7 cells assessed as reduction in cell viability incubated for 96 hrs by MTT assay; type: functional, cell-based; settings: RAW264.7, 96 h
A549 = test: Cytotoxicity against human A549 cells assessed as reduction in cell viability incubated for 96 hrs by MTT assay; type: functional, cell-based; settings: A549, 96 h
Candida parapsilosis = test: Antifungal activity against Candida parapsilosis GIM 2.190 assessed as fungal growth inhibition by CLSI based serial microbroth dilution method; type: functional; settings: Lodderomyces parapsilosis
Cell membrane [16] = test: Disruption of membrane integrity in Candida albicans ATCC SC5314 assessed as rupture of fungal cells at 16 ug/ml incubated for 48 hrs by transmission electron microscopy; type: subcellular; settings: dose 16.0 µg/ml
[17] = Cytotoxicity against human HepG2 cells assessed as reduction in cell viability incubated for 96 hrs by MTT assay; type: toxicity, cell-based
Nakaseomyces glabratus = test: Antifungal activity against Candida glabrata clinical isolate assessed as fungal growth inhibition by CLSI based serial microbroth dilution method; type: functional
Candida albicans [18] = test: Antifungal activity against FLC-resistant Candida albicans 311 assessed as fungal growth inhibition by CLSI based serial microbroth dilution method; type: functional
Candida albicans [19] = test: Antibiofilm activity against Candida albicans […] assessed as inhibition of […] metabolism within the biofilm measured after 6 hrs by XTT reduction assay; type: functional
[20] = target: T1, Lanosterol 14-alpha demethylase; test: Inhibition of CYP51 in Candida albicans ATCC SC5314 assessed as 14alpha-methylergosta-8,24(28)-dien-3beta-6alpha-diol level at 0.25 ug/ml measured after 18 hrs by GC-MS analysis relative to control; design: scale not given: the % may be the effect or the level left; settings: at 0.25 µg/mL
Candida albicans [21] = test: Antibiofilm activity against Candida albicans […] assessed as inhibition of […] metabolism activity in the biofilm measured after 24 hrs by XTT reduction assay; type: functional
[22] = target: T1, Lanosterol 14-alpha demethylase; test: Inhibition of CYP51 in Candida albicans ATCC SC5314 assessed as eburicol level at 0.25 ug/ml measured after 18 hrs by GC-MS analysis relative to control; design: scale not given: the % may be the effect or the level left; settings: at 0.25 µg/mL
Candida albicans [23] = test: Antibiofilm activity against Candida albicans […] assessed as inhibition of […] metabolism within the biofilm measured after 18 hrs by XTT reduction assay; type: functional
Candida albicans [24] = test: Antifungal activity against FLC-resistant Candida albicans 100 assessed as fungal growth inhibition by CLSI based serial microbroth dilution method; type: functional
Candida albicans [25] = test: Antibiofilm activity against Candida albicans […] assessed as inhibition of […] metabolism activity in the biofilm measured after 48 hrs by XTT reduction assay; type: functional
Candida albicans [26] = test: Antifungal activity against FLC-resistant Candida albicans 632 assessed as fungal growth inhibition by CLSI based serial microbroth dilution method; type: functional
Candida albicans [27] = test: Antifungal activity against FLC-resistant Candida albicans 901 assessed as fungal growth inhibition by CLSI based serial microbroth dilution method; type: functional
Aspergillus fumigatus = test: Antifungal activity against Aspergillus fumigatus CGMCC 3.7795 assessed as fungal growth inhibition by CLSI based serial microbroth dilution method; type: functional
[28] = Stability of the compound in human plasma assessed as parent compound remaining after 120 hrs by LC-MS/MS analysis; type: ADME, cell-free; settings: read-out: Stability
[29] = Stability of the compound in human plasma assessed as half life measured after […] by LC-MS/MS analysis; type: ADME, cell-free
[30] = Stability of the compound in human plasma assessed as parent compound remaining after […] by LC-MS/MS analysis; type: ADME, cell-free; settings: read-out: Stability

T1 sequence (P10613 whole entry): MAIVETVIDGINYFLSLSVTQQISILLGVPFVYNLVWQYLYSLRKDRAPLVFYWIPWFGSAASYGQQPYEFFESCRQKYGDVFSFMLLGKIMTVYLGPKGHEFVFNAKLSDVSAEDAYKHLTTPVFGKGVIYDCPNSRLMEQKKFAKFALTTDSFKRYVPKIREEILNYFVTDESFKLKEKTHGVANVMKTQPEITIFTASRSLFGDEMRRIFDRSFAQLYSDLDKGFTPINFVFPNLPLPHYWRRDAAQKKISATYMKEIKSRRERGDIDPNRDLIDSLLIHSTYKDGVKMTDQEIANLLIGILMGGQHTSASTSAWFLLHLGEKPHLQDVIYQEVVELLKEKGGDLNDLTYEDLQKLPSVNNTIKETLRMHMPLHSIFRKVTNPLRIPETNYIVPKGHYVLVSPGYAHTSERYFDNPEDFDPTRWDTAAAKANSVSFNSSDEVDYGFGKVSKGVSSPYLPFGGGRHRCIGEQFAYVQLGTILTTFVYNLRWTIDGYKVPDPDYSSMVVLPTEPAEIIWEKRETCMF

Structure (SMILES) | MFC (Candida albicans [1]) [µg/mL] | Activity (Cell membrane [2]) | MIC (Candida albicans [4]) [µg/mL] | MIC (Candida albicans [5]) [µg/mL] | IC50 (MCF7) [µM] | MIC (Candida albicans [6]) [µg/mL] | MIC (Cryptococcus neoformans) [µg/mL] | Activity (Cell membrane [8]) | MIC (Pichia kudriavzevii) [µg/mL] | MIC50 (Candida albicans [9]) [µg/mL] | Activity (Cell membrane [11]) | MIC (Candida albicans [12]) [µg/mL] | IC50 at 96 h [13] [µM] | MIC (Candida albicans [14]) [µg/mL] | MIC (Candida albicans [15]) [µg/mL] | MIC (Candida tropicalis) [µg/mL] | IC50 (RAW264.7) [µM] | IC50 (A549) [µM] | MIC (Candida parapsilosis) [µg/mL] | Activity (Cell membrane [16]) | other results
OC(Cn1cncn1)(Cn1cncn1)c1ccc(F)cc1F [FLUCONAZOLE] | > 64 | Active | > 64 | > 64 | > 50 | > 64 | 4 (≈ 13.1 µM) | Active | 8 (≈ 26.1 µM) | 16 (≈ 52.2 µM) | Active | 0.5 (≈ 1.63 µM) | > 50 | 32 (≈ 104 µM) | 1 (≈ 3.27 µM) | 0.5 (≈ 1.63 µM) | > 50 | > 50 | 2 (≈ 6.53 µM) | Active | Activity [3]: 1.59%; Activity [7]: 3.15%; Activity [10]: 34.42%; IC50 at 96 h [17]: > 50 µM; MIC (Nakaseomyces glabratus): 4 µg/mL (≈ 13.1 µM); MIC (Candida albicans [18]): > 64 µg/mL; MIC50 (Candida albicans [19]): 32 µg/mL (≈ 104 µM); Activity [20]: 22.35%; MIC50 (Candida albicans [21]): > 64 µg/mL; Activity [22]: 29.02%; MIC50 (Candida albicans [23]): 64 µg/mL (≈ 209 µM); MIC (Candida albicans [24]): > 64 µg/mL; MIC50 (Candida albicans [25]): > 64 µg/mL; MIC (Candida albicans [26]): > 64 µg/mL; MIC (Candida albicans [27]): 64 µg/mL (≈ 209 µM); MIC (Aspergillus fumigatus): > 64 µg/mL
Fc1cccc(F)c1CC1(Cn2ccnc2)COC(c2ccc(-c3ccsc3)cc2)=N1 (stereo not given) | 1 (≈ 2.3 µM) | Active | 1 (≈ 2.3 µM) | 2 (≈ 4.59 µM) | > 50 | 8 (≈ 18.4 µM) | 0.125 (≈ 0.287 µM) | Active | 0.25 (≈ 0.574 µM) | 0.25 (≈ 0.574 µM) | Active | 0.06 (≈ 0.138 µM) | 22.6 | 2 (≈ 4.59 µM) | 0.015 (≈ 0.0344 µM) | 0.015 (≈ 0.0344 µM) | 7.58 | > 50 | 0.125 (≈ 0.287 µM) | Active | remaining at 120 h [28]: 90.1%; half-life [29]: > 4.8 h; remaining [30]: 88.5%; IC50 at 96 h [17]: 34.2 µM; MIC (Nakaseomyces glabratus): 0.06 µg/mL (≈ 0.138 µM); MIC (Candida albicans [18]): 8 µg/mL (≈ 18.4 µM); MIC50 (Candida albicans [19]): 0.5 µg/mL (≈ 1.15 µM); MIC50 (Candida albicans [21]): 32 µg/mL (≈ 73.5 µM); MIC50 (Candida albicans [23]): 4 µg/mL (≈ 9.18 µM); MIC (Candida albicans [24]): 4 µg/mL (≈ 9.18 µM); MIC50 (Candida albicans [25]): > 64 µg/mL; MIC (Candida albicans [26]): 4 µg/mL (≈ 9.18 µM); MIC (Candida albicans [27]): 0.5 µg/mL (≈ 1.15 µM); MIC (Aspergillus fumigatus): 8 µg/mL (≈ 18.4 µM)
